Test results reported in PubChem BioAssay (NCI).
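Method: 48-hour compound exposure of cells in 96-well plates, five concentrations, linear interpolation of endpoints. TGI: concentration producing complete growth inhibition.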

Tests used:
Experiment in all cases: DTP human tumour cell line panel, 48 h
[1] = tested on: MCF7 breast
[2] = tested on: HL-60(TB) leukemia
[3] = tested on: MDA-N
[4] = tested on: T-47D breast
[5] = tested on: OVCAR-4 ovarian
[6] = tested on: SNB-75 CNS
[7] = tested on: SN12C renal
[8] = tested on: BT-549 breast
[9] = tested on: A549 NSCLC
[10] = tested on: OVCAR-3 ovarian
[11] = tested on: NCI-H23 lung
[12] = tested on: 786-0 renal
[13] = tested on: MDA-MB-435
[14] = tested on: MDA-MB-231 breast
[15] = tested on: A498 renal

Row | Compound | TGI [1] [µM] | TGI [2] [µM] | TGI [3] [µM] | TGI [4] [µM] | TGI [5] [µM] | TGI [6] [µM] | TGI [7] [µM] | TGI [8] [µM] | TGI [9] [µM] | TGI [10] [µM] | TGI [11] [µM] | TGI [12] [µM] | TGI [13] [µM] | TGI [14] [µM] | TGI [15] [µM]
1 | NS(=O)(=O)c1ccc(NC(=S)/N=C/c2c(O)c3ccccc3[nH]c2=O)cc1 | > 100 | 5.05 | > 100 | > 100 | > 100 | > 100 | > 100 | > 100 | > 100 | > 100 | > 100 | > 100 | > 100 | > 100 | 
2 | Cc1ccc(/C(O)=C/c2nc3ccccc3nc2NC23CC4CC(CC(C4)C2)C3)cc1 | > 10 | > 10 | > 10 | > 10 | > 10 | > 10 | > 10 | > 10 | > 10 | > 10 | > 10 | > 10 | > 10 | > 10 | 
3 | Nc1ccc2c(c1)N(C(=O)CCCC(=O)N1CC(CCl)c3ccc(N)cc31)CC2CCl (configuration not stated) | 12.9 | 0.907 | 3.82 |  | > 11.1 | 2.87 | 9.67 | 6.53 | > 50 | > 50 | 4.16 | > 29.7 | 3.17 | 8.76 | 3.47
4 | C=C[C@@]1(C)CC(=O)[C@]2(O)[C@@]3(C)[C@@H](OC(C)=O)CCC(C)(C)[C@@H]3[C@H](O)[C@H](OC(C)=O)[C@@]2(C)O1 | > 100 |  | > 100 | > 100 | > 100 | 87.7 | > 100 | > 100 | > 100 | > 100 | > 100 | > 100 | > 100 | > 100 | > 100
6 | CCOC(=O)C(C)c1nc2cc(F)c(N3CCOCC3)cc2[nH]c1=O (configuration not stated) | > 100 |  | > 100 | > 100 | > 100 | > 100 | > 100 | > 100 | > 100 | > 100 | > 100 | > 100 | > 100 | > 100 | > 100
7 | CCOC(=O)CCN1C(=O)c2ccc(NC(=O)C(=O)O)cc2S1(=O)=O | > 100 | > 100 | > 100 |  | > 100 | > 100 | > 100 | > 100 | > 100 | > 100 | > 100 | > 100 | > 100 | > 100 | > 100
8 | CCC(C)C1=C(O)[N+]2([O-])Oc3ccc(-c4c(O)c(O)c(-c5ccc(O)cc5)c(OC(C)=O)c4OC(C)=O)cc3OC2(C(C)CC)C(=O)N1O (configuration not stated) | > 50 | > 50 | > 50 | > 50 | > 50 | > 50 | > 50 |  | > 50 | > 50 | > 50 | > 50 | > 50 | > 50 | > 50
9 | O=[N+]([O-])/C(C(Cl)=C(Cl)Cl)=C(\Nc1cccc2cccnc12)Sc1ccccc1 | > 100 |  | > 100 | 38.4 | 51.4 | 72.2 | 87.7 | 48 | > 100 | 28.3 | 37.6 | 49.7 | 42.7 | > 100 | 69.4
10 | N#CCN(Cc1ccccc1)[C@H]1CCC[C@]1(O)/C=C/c1ccc2c(c1)OCO2 | 39.6 | 34.9 | 35.7 | 46.4 | > 100 | > 100 |  |  | > 100 | 57.6 | 69.2 | 31.4 | 53.2 | 71.5 | > 100
11 | CCOC(=O)/C(=C\NC[C@@H](C)O)c1nc2ccccc2[nH]1 | > 100 | 90.4 | > 100 |  | > 100 | > 100 | > 100 | > 100 | > 100 | > 100 | > 100 | > 100 | > 100 |  | > 100
12 | Clc1ccccc1-c1nn2c(CCCCCCCCc3nnc4sc(-c5ccccc5Cl)nn34)nnc2s1 | > 100 |  | > 100 | > 100 | > 100 | > 100 | > 100 | > 100 | > 100 | > 100 | > 100 | > 100 | > 100 | > 100 | > 100
13 | N/C(=N\Nc1cccc(Cl)c1)c1cccnc1 | > 100 | > 66.9 |  | > 92.6 | > 100 | 99.7 | > 100 | > 100 | > 100 | > 86.3 | > 100 | > 100 | > 30.1 | > 100 | 87.4
14 | O=C1c2scc(-c3ccc(F)cc3)c2-n2cccc21 | > 100 |  | 28.8 | > 100 | > 100 | 45.2 | 87.9 | 79.7 | > 100 | > 100 |  | 68.6 | 31.4 | > 100 | 3.1
15 | [N-]=[N+]=NC1(c2ccccc2)C(=O)c2cccc3c4ccccc4n(c23)C1=O (configuration not stated) | > 100 |  | > 100 | > 100 | > 100 | > 100 | > 100 | > 100 | > 100 | > 100 | > 100 | > 100 | 92.8 | > 100 | > 100
16 | O=S(=O)(O)c1cc(S(=O)(=O)O)c2c(N=Nc3ccccc3)c(O)ccc2c1 |  |  | > 100 | > 100 | > 100 | > 100 | > 100 | > 100 | > 100 | > 100 | > 100 | > 100 | > 100 | > 100 | > 100

Row | Compound | TGI [1] [µM] | TGI [2] [µM] | TGI [3] [µM] | TGI [4] [µM] | TGI [5] [µM] | TGI [6] [µM] | TGI [7] [µM] | TGI [8] [µM] | TGI [9] [µM] | TGI [10] [µM] | TGI [11] [µM] | TGI [12] [µM] | TGI [13] [µM] | TGI [14] [µM] | TGI [15] [µM]
17 | C(=C\c1ccccc1)/Cn1nc(-c2ccccc2)nc1-c1cnccn1 | > 100 | > 100 | > 100 | > 100 | > 100 | > 100 | > 100 | > 100 | > 100 | > 100 | > 100 | > 100 | > 100 | > 100 | 
18 | c1ccc2c(c1)Sc1ccccc1N2CCCN1c2ccccc2Sc2ccccc21 | > 100 |  | > 100 | > 100 | > 100 |  | > 100 | > 100 | > 100 | > 100 | > 100 | 45.2 | > 100 | > 100 | > 100
19 | COC1/C=C/C(C)C(C(C)C(OC)C(C)CCC(=O)C(C)C(CC(=O)O)OC)OC(=O)/C=C/C=C(\C)CC(OC)C(OC)C2=CC(=O)O[C@@H](C(C)C(OC)CC(OC)/C=C/C(C)C(O)C1)[C@H]2O (some centres not stated) | > 1.07 | 0.074 | > 1.07 | 0.981 | > 1.07 | 0.0982 | > 1.07 |  | 0.437 | > 1.07 | 0.722 | 0.12 | 1.02 | 0.754 | 0.365
20 | O=C1CCCSCCCC(=O)CCCSCCC1 | > 100 | > 100 | > 100 | > 100 | > 100 | > 100 | > 100 | > 100 | > 100 | > 100 | > 100 | > 100 | > 100 | > 100 | 
21 | O=C1CSC2(CC(/C=C/c3cccc(Br)c3)=NN2c2cccc(S(=O)(=O)O)c2)N1c1nc2ccccc2s1 (configuration not stated) | > 100 |  | > 100 | > 100 | > 100 | > 100 | > 100 | > 100 | > 100 | > 100 | > 100 | > 100 | > 100 | > 100 | > 100
22 | COc1nc(N)nc2c1n(C)c[n+]2C |  | > 100 | > 100 | > 100 |  | > 100 | > 100 | > 100 | > 100 | > 100 | > 100 | > 100 | > 100 | > 100 | > 100
23 | CCCCC1=C(C(=O)N2CCOCC2)C2(OCCO2)C1Cl (configuration not stated) | > 100 | > 100 | 39.7 | > 100 | > 100 | > 100 | 50.1 |  | 48.9 |  | > 100 | > 100 | 67.8 | > 100 | > 100
24 | N#Cc1c(-c2cccc(Br)c2)cc(-c2ccc(Cl)cc2)nc1N | > 100 | 69 | 46.7 | > 100 | 13.5 |  | 35.9 | 99.3 | 57 | 77.3 | 71.7 | 42.4 | 38.2 |  | 
25 | O=c1ccc(-c2ccc(-n3ccnc3)cc2)nn1CCO | > 100 | > 100 | > 100 |  | > 100 | > 100 | > 100 | > 100 | > 100 | > 100 | > 100 | > 100 | > 100 |  | > 100
26 | Cc1ccc([N+](=O)[O-])cc1S(=O)(=O)Nc1ccc(C2=NOC(c3ccccc3)C2)cc1 (configuration not stated) | 16.5 | 25.2 | 6.38 | 51.1 | 11.8 | 70.3 | 71.7 | 51.9 | > 100 | 10.5 | > 100 | 35.6 |  | 88.3 | 56.8
27 | COC(=O)CC(SCCO)SCCO |  | > 100 | > 100 |  | > 100 | > 100 | > 100 |  | > 100 | > 100 | > 100 | > 100 | > 100 | > 100 | > 100
28 | Nc1nc([O-])c([I+]c2ccccc2)c(=O)[nH]1 | > 100 | > 100 | > 100 |  | > 100 | > 100 | > 100 | > 100 | > 100 | > 100 | > 100 | > 100 | > 100 | > 100 | > 100
29 | CC1CC/C(=C\c2ccc(Cl)cc2)C(=O)/C1=C\c1ccc(Cl)cc1 (configuration not stated) | > 100 |  | > 100 | > 100 |  | > 100 | 95.5 | 50.3 | > 100 |  |  | > 100 | > 100 | > 100 | 17.7
30 | O=S(=O)(O)c1cccc2ccc(O)c(N=Nc3ccc(S(=O)(=O)c4ccc(N=Nc5c(O)ccc6cccc(S(=O)(=O)O)c56)cc4)cc3)c12 |  | > 100 | > 100 | > 100 | > 100 | > 100 | > 100 | > 100 | > 100 | > 100 | > 100 | > 100 | > 100 | > 100 | 
31 | O=c1oc2ccccc2cc1-c1nc2ccccc2c(=O)[nH]1 | > 100 | > 100 | > 100 | > 100 | > 100 | > 100 | > 100 | > 100 | > 100 |  |  | > 100 | > 100 | > 100 | 
32 | COC(=O)/C=C/COCC1C2CCC(=O)C21 (configuration not stated) | > 100 |  | > 100 |  | > 100 | > 100 | > 100 | > 100 | > 100 | > 100 | > 100 | > 100 | > 100 | > 100 | 
